This is an account of results in patent US20130253179A1, “Functionalization Processes and Reactants Used in Such Processes Using an Isatoic Anhydride or a Derivative Thereof, Biological Molecules Thus Treated and Kits” (priority 2010, published 2013).

This test relates to in vitro RNA transcripts (IVT). The test is described as follows: Functionalisation of in vitro RNA transcripts, Cy3 and RNA assay, DoL (Degree of Labelling). The test is classed as biochemical, human. Here is the method: The in vitro transcripts are generated in the same way as described in example 8. In this example, we have used four concentrations of functionalisation molecule Cy3 IA Me (13) in order to determine the most appropriate concentration for detection of the most sensitive functionalised IVTs.
6 μg of in vitro transcripts are taken up in a total volume of 20 μL of a 10 mM solution of Zn(OAc)2 pH 6.5. The solution is incubated for 15 min at 70° C. in order to partially fragment the RNA until a majority of fragments are obtained which are of a size between 25 and 200 bases. After this incubation, the solution is immediately put into ice.
11 μL of the transcript solution is mixed with 4 μL of a 500 mM solution of NaHCO3 pH 8-8.5, and with 5 μL of a 120, 240, 360 or 480 mM solution of Cy3 IA Me (13) in DMSO, to obtain 30, 60, 90 or 120 mM solutions of functionalisation reagent, respectively. These solutions are incubated at 65° C. for one hour.
The excess of functionalisation reagent as well as that of the different salts are eliminated by isopropanol precipitation then by acetone precipitation. To do this, 6 μL of 3M sodium acetate (i.e. 30% by volume) and 14 μL of isopropanol (i.e. 70% by volume) are added to the functionalisation solution. Vortex stirring is performed and centrifuging is performed for 30 mins at 14,000 rpm (20,800 g) at 4° C. The supernatant is eliminated and then the pellet is rinsed with 50 μL of 70% ethanol. Centrifuging is carried out again for 15 mins at 14,000 rpm (20,800 g) at 4° C., and the supernatant is eliminated.
280 μL of water, 18 μL of 3M LiClO4 and 900 μL of acetone are added to the pellet. Vortex stirring is performed, centrifuging is performed and the supernatant is eliminated. Next, 280 μL of water, 18 μL of 3M LiClO4 and 900 μL of acetone are added to the pellet. Vortex stirring is performed, centrifuging is performed and the supernatant is eliminated. The pellet is rinsed with 50 μL of 70% ethanol and then centrifuging is carried out for 15 mins at 14,000 rpm (20,800 g) at 4° C. The supernatant is eliminated, and the pellet is dried under vacuum with the rotary evaporator before the pellet is taken up in 20 μL of water (i.e. [in vitro transcripts]theoretical=[…]).
In order to determine the quantity of functionalised in vitro transcripts recovered after these different treatments, 1.2 μl of each end solution are assayed by UV spectrophotometry at 260 nm (Nanodrop 100, Thermo Scientific Waltham, USA). An assay is also carried out at 550 nm in order to learn the Cy3 functionalisation rate of the in vitro transcripts (% of Cy3 molecules per 100 nucleosides). This value is also known under the name DoL (Degree of Labelling) and is calculated with the following equation: DoL (in %)=100×(340×[Cy3])/(1000×[RNA]). […]

For `CCN1/C(=C\C=C\C2=[N+](CCCCCC(=O)Nc3ccc4c(c3)c(=O)oc(=O)n4C)c3ccc(S(=O)(=O)[O-])cc3C2(C)C)C(C)(C)c2cc(S(=O)(=O)[O-])ccc21.[K+]` [Cy3 IA Me 13, 1-methyl 5-Cy3-isatoic anhydride], the DoL was found to be 0.8% (30 mM compound in the solution), 1.7% (60 mM compound in the solution), 2% (90 mM compound in the solution) and 2.7% (120 mM compound in the solution).
